In PubChem BioAssay (NCI):
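These data come from cells grown in 96-well plates and exposed to compound for 48 hours at five concentrations. TGI is the concentration that stops growth completely.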

Assays:
Test in all cases: growth of human tumour cells (NCI), 48 h
ACHN renal = system: ACHN renal
PC-3 prostate = system: PC-3 prostate
A549 NSCLC = system: A549 NSCLC
786-0 renal = system: 786-0 renal
SNB-75 CNS = system: SNB-75 CNS
SW-620 colon = system: SW-620 colon
A498 renal = system: A498 renal
SF-268 CNS = system: SF-268 CNS
IGROV1 ovarian = system: IGROV1 ovarian
HOP-62 NSCLC = system: HOP-62 NSCLC
SF-295 CNS = system: SF-295 CNS
HS 578T breast = system: HS 578T breast
BT-549 breast = system: BT-549 breast
NCI-H522 lung = system: NCI-H522 lung
TK-10 renal = system: TK-10 renal
KM12 colon = system: KM12 colon
HCT-15 colon = system: HCT-15 colon
MDA-MB-435 = system: MDA-MB-435
UACC-257 melanoma = system: UACC-257 melanoma
OVCAR-5 ovarian = system: OVCAR-5 ovarian
RXF 393 renal = system: RXF 393 renal
MDA-MB-231 breast = system: MDA-MB-231 breast
SK-MEL-5 melanoma = system: SK-MEL-5 melanoma
NCI-H226 lung = system: NCI-H226 lung
NCI-H460 lung = system: NCI-H460 lung
T-47D breast = system: T-47D breast
NCI-H23 lung = system: NCI-H23 lung
UO-31 renal = system: UO-31 renal
HL-60(TB) leukemia = system: HL-60(TB) leukemia
DU-145 prostate = system: DU-145 prostate
MCF7 breast = system: MCF7 breast
OVCAR-3 ovarian = system: OVCAR-3 ovarian
SK-MEL-28 melanoma = system: SK-MEL-28 melanoma
HT29 colon = system: HT29 colon
SR leukemia = system: SR leukemia
SN12C renal = system: SN12C renal
CAKI-1 renal = system: CAKI-1 renal
OVCAR-4 ovarian = system: OVCAR-4 ovarian
OVCAR-8 ovarian = system: OVCAR-8 ovarian
EKVX NSCLC = system: EKVX NSCLC
LOX IMVI melanoma = system: LOX IMVI melanoma
U251 CNS = system: U251 CNS
NCI/ADR-RES ovarian = system: NCI/ADR-RES ovarian
K-562 leukemia = system: K-562 leukemia
COLO 205 colon = system: COLO 205 colon
MDA-N = system: MDA-N
HCT-116 colon = system: HCT-116 colon
SK-MEL-2 melanoma = system: SK-MEL-2 melanoma
SNB-19 CNS = system: SNB-19 CNS
UACC-62 melanoma = system: UACC-62 melanoma
SF-539 CNS = system: SF-539 CNS
HCC-2998 colon = system: HCC-2998 colon
MOLT-4 leukemia = system: MOLT-4 leukemia
HOP-92 NSCLC = system: HOP-92 NSCLC
M14 melanoma = system: M14 melanoma
CCRF-CEM leukemia = system: CCRF-CEM leukemia
MALME-3M melanoma = system: MALME-3M melanoma
RPMI-8226 leukemia = system: RPMI-8226 leukemia
SK-OV-3 ovarian = system: SK-OV-3 ovarian

C=CC(O)C#Cc1cnc(OC)nc1OC (centres undefined)
TGI (ACHN renal): > 100 µM | TGI (PC-3 prostate): > 100 µM | TGI (A549 NSCLC): > 100 µM | TGI (786-0 renal): > 100 µM | TGI (SNB-75 CNS): > 100 µM | TGI (SW-620 colon): > 100 µM | TGI (A498 renal): 33 µM | TGI (SF-268 CNS): > 100 µM | TGI (IGROV1 ovarian): > 100 µM | TGI (HOP-62 NSCLC): > 100 µM | TGI (SF-295 CNS): > 100 µM | TGI (HS 578T breast): > 100 µM | TGI (BT-549 breast): > 100 µM | TGI (NCI-H522 lung): > 100 µM | TGI (TK-10 renal): > 100 µM | TGI (KM12 colon): > 100 µM | TGI (HCT-15 colon): > 100 µM | TGI (MDA-MB-435): > 100 µM | TGI (UACC-257 melanoma): > 100 µM | TGI (OVCAR-5 ovarian): > 100 µM | TGI (RXF 393 renal): > 100 µM | TGI (MDA-MB-231 breast): > 100 µM | TGI (SK-MEL-5 melanoma): > 100 µM | TGI (NCI-H226 lung): > 100 µM | TGI (NCI-H460 lung): > 100 µM | TGI (T-47D breast): > 100 µM | TGI (NCI-H23 lung): > 100 µM | TGI (UO-31 renal): > 100 µM | TGI (HL-60(TB) leukemia): 43.9 µM | TGI (DU-145 prostate): > 100 µM | TGI (MCF7 breast): > 100 µM | TGI (OVCAR-3 ovarian): > 100 µM | TGI (SK-MEL-28 melanoma): > 100 µM | TGI (HT29 colon): > 100 µM | TGI (SR leukemia): > 100 µM | TGI (SN12C renal): > 100 µM | TGI (CAKI-1 renal): > 100 µM | TGI (OVCAR-4 ovarian): > 100 µM | TGI (OVCAR-8 ovarian): > 100 µM | TGI (EKVX NSCLC): > 100 µM | TGI (LOX IMVI melanoma): > 100 µM | TGI (U251 CNS): > 100 µM | TGI (NCI/ADR-RES ovarian): > 100 µM | TGI (K-562 leukemia): 66.6 µM | TGI (COLO 205 colon): > 100 µM | TGI (MDA-N): > 100 µM | TGI (HCT-116 colon): > 100 µM | TGI (SK-MEL-2 melanoma): > 100 µM | TGI (SNB-19 CNS): > 100 µM | TGI (UACC-62 melanoma): > 100 µM | TGI (SF-539 CNS): > 100 µM | TGI (HCC-2998 colon): > 100 µM | TGI (MOLT-4 leukemia): > 100 µM | TGI (HOP-92 NSCLC): > 100 µM | TGI (M14 melanoma): > 100 µM | TGI (CCRF-CEM leukemia): 47.9 µM

Nc1ccccc1C(=O)CCc1c[nH]c2ccccc12
TGI (ACHN renal): > 100 µM | TGI (PC-3 prostate): > 100 µM | TGI (A549 NSCLC): > 100 µM | TGI (786-0 renal): > 100 µM | TGI (SNB-75 CNS): > 100 µM | TGI (SW-620 colon): > 100 µM | TGI (A498 renal): > 100 µM | TGI (SF-268 CNS): > 100 µM | TGI (IGROV1 ovarian): > 100 µM | TGI (HOP-62 NSCLC): > 100 µM | TGI (SF-295 CNS): > 100 µM | TGI (HS 578T breast): > 100 µM | TGI (BT-549 breast): > 100 µM | TGI (NCI-H522 lung): > 100 µM | TGI (TK-10 renal): > 100 µM | TGI (KM12 colon): > 100 µM | TGI (HCT-15 colon): > 100 µM | TGI (MDA-MB-435): > 100 µM | TGI (UACC-257 melanoma): > 100 µM | TGI (OVCAR-5 ovarian): > 100 µM | TGI (MDA-MB-231 breast): > 100 µM | TGI (NCI-H226 lung): > 100 µM | TGI (NCI-H460 lung): > 100 µM | TGI (T-47D breast): > 100 µM | TGI (UO-31 renal): > 100 µM | TGI (HL-60(TB) leukemia): > 100 µM | TGI (DU-145 prostate): > 100 µM | TGI (MCF7 breast): > 100 µM | TGI (OVCAR-3 ovarian): > 100 µM | TGI (SK-MEL-28 melanoma): > 100 µM | TGI (HT29 colon): > 100 µM | TGI (SR leukemia): > 100 µM | TGI (SN12C renal): > 100 µM | TGI (MALME-3M melanoma): > 100 µM | TGI (OVCAR-4 ovarian): > 100 µM | TGI (OVCAR-8 ovarian): > 100 µM | TGI (RPMI-8226 leukemia): > 100 µM | TGI (EKVX NSCLC): > 100 µM | TGI (LOX IMVI melanoma): > 100 µM | TGI (U251 CNS): > 100 µM | TGI (NCI/ADR-RES ovarian): > 100 µM | TGI (K-562 leukemia): > 100 µM | TGI (SK-OV-3 ovarian): > 100 µM | TGI (MDA-N): > 100 µM | TGI (HCT-116 colon): > 100 µM | TGI (SK-MEL-2 melanoma): > 100 µM | TGI (SNB-19 CNS): > 100 µM | TGI (UACC-62 melanoma): > 100 µM | TGI (SF-539 CNS): > 100 µM | TGI (HCC-2998 colon): > 100 µM | TGI (MOLT-4 leukemia): > 100 µM | TGI (HOP-92 NSCLC): 55.2 µM | TGI (M14 melanoma): > 100 µM
